According to patent publication US20140005103A1, “SULFONAMIDE DERIVATIVES AND METHODS OF USE THEREOF FOR IMPROVING THE PHARMACOKINETICS OF A DRUG” (Merck, Sharp & Dohme Corp., priority 2012, published 2014):
pIC50: −log10 of the molar value.

What was measured:
[1] = target: T1, CYP1A2 (Homo sapiens, UniProt P05177); experiment: Cocktail CYP assay, phenacetin O-deethylation; assay type: in vitro ADME; conditions: human liver microsomes, 10 μM phenacetin; test concentrations up to 10 μM
T1 construct: 0.1 mg/mL protein human liver microsomes (BD Gentest); tissue BD Gentest; host or cells: human liver microsomes
T1 sequence (P05177 1-516): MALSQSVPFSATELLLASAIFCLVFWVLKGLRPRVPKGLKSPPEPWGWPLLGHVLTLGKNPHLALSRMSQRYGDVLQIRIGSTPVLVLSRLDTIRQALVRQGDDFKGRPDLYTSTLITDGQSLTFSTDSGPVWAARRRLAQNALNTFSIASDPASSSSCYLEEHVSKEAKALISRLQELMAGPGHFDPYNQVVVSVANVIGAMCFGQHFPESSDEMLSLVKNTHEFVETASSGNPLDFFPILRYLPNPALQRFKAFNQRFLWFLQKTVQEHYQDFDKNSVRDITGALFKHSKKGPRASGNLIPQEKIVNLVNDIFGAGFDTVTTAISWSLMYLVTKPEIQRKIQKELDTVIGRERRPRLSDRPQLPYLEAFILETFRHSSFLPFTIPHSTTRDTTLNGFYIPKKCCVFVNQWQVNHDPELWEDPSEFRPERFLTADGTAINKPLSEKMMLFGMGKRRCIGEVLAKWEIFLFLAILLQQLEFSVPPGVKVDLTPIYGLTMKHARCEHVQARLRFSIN
Experimental: (§1) Determination of IC50 in a Cocktail Assay for CYPs 1A2, 2C9, 2C19, 2D6 and 3A4
(§2) This assay was performed in a standard 96-well plate design. IC50 values were calculated from the percent inhibition observed for each test compound at 6 concentrations (for example, 0.0032, 0.016, 0.08, 0.4, 2 and 10 μM). The incubation substrate mix contains 10 μM phenacetin (1A2), 5 μM diclofenac (2C9), 30 μM mephenyloin (2C19), 5 μM dextromethorphan (2D6) and 2 μM midazolam (3A4), 0.1 mg/mL protein human liver microsomes (BD Gentest), 1 mM NAPDH, 3.3 mM MgCl2 and 100 mM potassium phosphate buffer (pH 7.4). The production of the metabolite of each probe substrate was determined after incubation for 10 min at 37° C. Quantitation of the metabolite peak area ratio against an internal standard (tolbutamide) was determined by LC/MS/MS analysis following acetonitrile treatment of the incubations.
(§3) Samples were analyzed in the MRM mode with a SCIEX API-4000 mass spectrometer (Applied Biosystems, Foster City, Calif.), with a Shimadzu LC-20 AD pump (Shimadzu corporation, Kyoto, JP) and a CTC PAL autosampler (Agilent Technologies, Switzerland). A Phenomenex, Luna, […], 100 A, 2.00×30 mm HPLC column was used for the separation. The mobile phases were: (A) 0.1% formic acid in water and (B) 0.1% formic acid in acetonitrile. The binary gradient was as follows.
(§4) The peak area ratio of the analyte to the internal standard was used to quantify the metabolite. The values of peak area ratios in the presence of test compound were compared to those of maximum or minimum controls and were expressed as % inhibition by interpolating between the maximum and minimum peak area ratios. Incubations with no inhibitor were defined as the maxima.
(§5) The following equation was used to calculate the % inhibition:
(§6) [1−[(X−Low control)/(High control−Low control)]]*100
(§7) For the IC50 calculation, SigmaPlot was used to plot the mean % inhibition versus the test compound concentrations and for non-linear regression analysis of the data. Depending on the range of data points defining the inhibition curve, the data may have been fit to the 4-parameter logistic equation.

[2] = target: T2, CYP2C19 (Homo sapiens, UniProt P33261); experiment: Cocktail CYP assay, mephenytoin 4'-hydroxylation; assay type: in vitro ADME; conditions: human liver microsomes, 30 μM mephenytoin; test concentrations up to 10 μM
T2 construct: 0.1 mg/mL protein human liver microsomes (BD Gentest); tissue BD Gentest; host or cells: human liver microsomes
Experimental: as §1, §2, §3, §4, §5, §6, §7

[3] = target: T3, CYP2D6 (Homo sapiens, UniProt P10635); experiment: Cocktail CYP assay, dextromethorphan O-demethylation; assay type: in vitro ADME; conditions: human liver microsomes, 5 μM dextromethorphan; test concentrations up to 10 μM
T3 construct: 0.1 mg/mL protein human liver microsomes (BD Gentest); tissue BD Gentest; host or cells: human liver microsomes
Experimental: as §1, §2, §3, §4, §5, §6, §7

[4] = target: T4, human CYP11B2 (Homo sapiens, UniProt P19099); experiment: IC50 vs CYP11B2 by aldosterone synthesis in V79 cells; assay type: cell-based; conditions: V79 cells expressing human CYP11B2, 750 nM DOC, aldosterone HTRF; test concentrations 0.5-10000 nM
T4 construct: expressed in transfected cells
T4 sequence (P19099 25-503): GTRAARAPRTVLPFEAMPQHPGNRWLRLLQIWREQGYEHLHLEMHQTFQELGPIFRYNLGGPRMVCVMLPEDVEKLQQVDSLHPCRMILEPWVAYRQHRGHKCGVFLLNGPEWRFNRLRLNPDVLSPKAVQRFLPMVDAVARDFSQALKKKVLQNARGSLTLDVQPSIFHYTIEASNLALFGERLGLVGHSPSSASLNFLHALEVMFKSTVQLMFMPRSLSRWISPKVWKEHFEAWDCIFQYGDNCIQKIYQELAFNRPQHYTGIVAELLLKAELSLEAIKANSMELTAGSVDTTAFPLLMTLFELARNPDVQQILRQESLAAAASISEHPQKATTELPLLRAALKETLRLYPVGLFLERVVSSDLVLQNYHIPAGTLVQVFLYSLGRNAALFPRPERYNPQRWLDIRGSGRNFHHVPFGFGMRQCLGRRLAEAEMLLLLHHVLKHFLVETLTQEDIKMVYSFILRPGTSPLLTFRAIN
Experimental: Determination of IC50 vs CYP11B1/CYP11B2 by Measurement of Cortisol/Aldosterone Synthesis
This assay was performed in a standard 384-well plate design using cultured V79 cells stably expressing human CYP11B1 or human CYP11B2. Test compounds at 10 concentrations (for example, 10000, 3333.3, 1111.1, 370.4, 123.5, 41.2, 13.7, 4.6, 1.5 and 0.5 nM) were added in 384-well plate after the cell-seeding procedure. The incubation substrate contains 1500 nM RSS for CYP11B1 assay/750 nM DOC for CYP11B2 assay. The
Cortisol/Aldosterone production of cell culture supernatant was determined by Cortisol/Aldosterone HTRF kit after for about 15 hours incubation at RT (protect from light). IC50 values were calculated from the percent inhibition observed for each test compound at 10 concentrations.
The assay plate was read using Envision (Perkin Elmer, Waltham, Mass.) at 665 nm and 590 nm (using Filter Barcode of 217#, 205#; Mirror Barcode of 446#).
Data are analyzed using Assay Data Analyzer. All ratio data (665 nm/590 nm) are back calculated according to the standard curve, resulting in Cortisol/Aldosterone concentrations. IC50 values are reported as the Inflection Point (IP) of a four parameter fit of the titration data.
as §5
% Activity=100×{1−(Sample_back calculated Cortisol/Aldosterone concentration−LC_back calculated Cortisol/Aldosterone concentration)/(HC_back calculated Cortisol/Aldosterone concentration−LC_back calculated Cortisol/Aldosterone concentration)}

T3 sequence (P10635 whole entry): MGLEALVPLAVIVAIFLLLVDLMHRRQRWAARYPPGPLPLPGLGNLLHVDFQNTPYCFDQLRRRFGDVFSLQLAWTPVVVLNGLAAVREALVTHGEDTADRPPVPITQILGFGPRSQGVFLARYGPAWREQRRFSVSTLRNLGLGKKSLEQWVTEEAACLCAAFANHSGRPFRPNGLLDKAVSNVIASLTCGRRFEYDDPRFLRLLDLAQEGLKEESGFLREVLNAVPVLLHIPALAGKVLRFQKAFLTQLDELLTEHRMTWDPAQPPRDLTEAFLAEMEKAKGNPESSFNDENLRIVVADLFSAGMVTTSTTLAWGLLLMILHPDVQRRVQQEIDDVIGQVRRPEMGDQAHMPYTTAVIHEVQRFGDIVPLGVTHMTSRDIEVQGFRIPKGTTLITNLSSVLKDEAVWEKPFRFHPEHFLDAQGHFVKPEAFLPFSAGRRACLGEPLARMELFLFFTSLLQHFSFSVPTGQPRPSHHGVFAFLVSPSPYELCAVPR
T2 sequence (P33261 whole entry): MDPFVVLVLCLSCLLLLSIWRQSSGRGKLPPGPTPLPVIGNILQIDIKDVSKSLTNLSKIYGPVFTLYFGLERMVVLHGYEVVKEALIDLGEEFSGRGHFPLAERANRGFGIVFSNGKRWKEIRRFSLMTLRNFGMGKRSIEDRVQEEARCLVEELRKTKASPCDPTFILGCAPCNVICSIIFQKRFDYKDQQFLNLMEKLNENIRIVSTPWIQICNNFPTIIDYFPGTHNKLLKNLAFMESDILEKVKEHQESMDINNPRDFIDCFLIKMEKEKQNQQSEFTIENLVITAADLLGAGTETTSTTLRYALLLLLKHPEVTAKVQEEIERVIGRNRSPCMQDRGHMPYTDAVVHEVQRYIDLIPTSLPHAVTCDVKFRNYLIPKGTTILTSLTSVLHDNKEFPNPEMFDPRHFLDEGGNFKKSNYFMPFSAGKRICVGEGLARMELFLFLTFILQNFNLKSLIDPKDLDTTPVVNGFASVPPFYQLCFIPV

Row | Structure (SMILES) | pIC50 [1] | pIC50 [2] | pIC50 [3] | pIC50 [4]
1 | C[C@H](c1ccc(F)cc1)n1cncc1CN1CCN(S(=O)(=O)c2cnc(N3CCN4C[C@@H](CN)C[C@H]4C3)s2)CC1 [Compound 10] | < 5.00 | < 5.00 | < 5.00 | < 5.00
2 | C[C@H](c1ccc(F)cc1)n1cncc1CN1CCN(S(=O)(=O)c2cnc(N3CC[C@@H](N)[C@H](F)C3)s2)CC1 [Compound 11] | < 5.00 | 5.10 | < 5.00 | 5.47
3 | C[C@H](c1ccc(F)cc1)n1cncc1CN1CCN(S(=O)(=O)c2cnc(N3CC[C@@H]4NCCO[C@H]4C3)s2)CC1 [Compound 15] | < 5.00 | < 5.00 | 5.45 | 5.44
4 | C[C@H](c1ccc(F)cc1)n1cncc1CN1CCN(S(=O)(=O)c2cnc(N3CCN4C[C@H](O)C[C@H]4C3=O)s2)CC1 [Compound 18] | < 5.00 | 5.66 | 5.30 | 5.34
5 | C[C@H](c1ccc(F)cc1)n1cncc1CN1CCN(S(=O)(=O)c2cnc(N3CCN4C[C@H](O)CC[C@H]4C3)s2)CC1 [Compound 19] | < 5.00 | 5.10 | 5.15 | 5.72
6 | C[C@H](c1ccc(F)cc1)n1cncc1CN1CCN(S(=O)(=O)c2cnc(N3C[C@@H]4C[C@@H](O)CN4C[C@@H]3C)s2)CC1 [Compound 21] | < 5.00 | ≤ 5.00 | 5.21 | < 5.00
7 | CC1CN(c2ncc(S(=O)(=O)N3CCN(Cc4cncn4[C@H](C)c4ccc(F)cc4)CC3)s2)C[C@@H]2C[C@@H](O)CN12 (stereo partly drawn) [Compound 23] | < 5.00 | < 5.00 | 5.33 | 5.34
8 | C[C@H](c1ccc(F)cc1)n1cncc1CN1CCN(S(=O)(=O)c2cnc(N3CCN4C[C@H](O)CC4(C)C3)s2)CC1 (stereo partly drawn) [Compound 24] | < 5.00 | < 5.00 | 5.49 | < 5.00
9 | C[C@H](c1ccc(F)cc1)n1cncc1CN1CCN(S(=O)(=O)c2cnc(N3CCC(N)(CO)CC3)s2)CC1 [Compound 25] | < 5.00 | < 5.00 | 5.08 | < 5.00
10 | C[C@H](c1ccc(F)cc1)n1cncc1CN1CCN(S(=O)(=O)c2cnc(N3CCN4C(=O)OC[C@H]4C3)s2)CC1 [Compound 26] | < 5.00 | 5.14 | < 5.00 | 5.04
11 | C[C@H](c1ccc(F)cc1)n1cncc1CN1CCN(S(=O)(=O)c2cnc(N3CCN4CCC(O)[C@H]4C3)s2)CC1 (stereo partly drawn) [Compound 27] | < 5.00 | 5.19 | 5.41 | 5.64
12 | C[C@H](c1ccc(F)cc1)n1cncc1CN1CCN(S(=O)(=O)c2ccc(N3CCNCC3)cn2)CC1 [Compound 28] | < 5.00 | 5.43 | 5.19 | 5.33

Next, values leading:

Row | pIC50 [1] | pIC50 [2] | pIC50 [3] | pIC50 [4] | Structure (SMILES)
13 | 5.06 | 5.64 | 5.44 | 5.87 | CC1CN2C[C@H](O)C[C@H]2CN1c1ncc(S(=O)(=O)N2CCN(Cc3cncn3[C@H](C)c3ccc(F)cc3)CC2)s1 (single isomer, unassigned) [Compound 22]
14 | < 5.00 | 5.60 | 5.56 | 5.77 | C[C@H](c1ccc(F)cc1)n1cncc1CN1CCN(S(=O)(=O)c2cnc(N3CCNCC3)s2)CC1 [Compound 1]
15 | < 5.00 | 5.74 | 5.10 | 7.11 | C[C@H](c1ccc(F)cc1)n1cncc1CN1CCN(S(=O)(=O)c2cnc(N3CCN(C)CC3)s2)CC1 [Compound 2]
16 | < 5.00 | < 5.00 | 5.57 | < 5.00 | C[C@H](c1ccc(F)cc1)n1cncc1CN1CCN(S(=O)(=O)c2cnc(N3CCC4(CC3)CNC(=O)N4)s2)CC1 [Compound 3]
17 | < 5.00 | 6.14 | 5.28 | 6.35 | C[C@H](c1ccc(C#N)cc1)n1cncc1CN1CCN(S(=O)(=O)c2cnc(Nc3ccc(C(F)(F)F)cn3)s2)CC1 [Compound 4]
18 | < 5.00 | 5.41 | < 5.00 | 5.32 | C[C@H](c1ccc(F)cc1)n1cncc1CN1CCN(S(=O)(=O)c2cnc(N3CCN4C[C@H](O)C[C@H]4C3)s2)CC1 [Compound 5]
19 | < 5.00 | < 5.00 | < 5.00 | 5.41 | C[C@H](c1ccc(F)cc1)n1cncc1CN1CCN(S(=O)(=O)c2cnc(N3CCN4C[C@H](O)C[C@@H]4C3)s2)CC1 [Compound 6]
20 | < 5.00 | < 5.00 | < 5.00 | 5.40 | C[C@H](c1ccc(F)cc1)n1cncc1CN1CCN(S(=O)(=O)c2cnc(N3CCC(S(C)(=O)=O)C3)s2)CC1 (stereo partly drawn) [Compound 8]
21 | < 5.00 | < 5.00 | < 5.00 | 5.41 | C[C@H](c1ccc(F)cc1)n1cncc1CN1CCN(S(=O)(=O)c2cnc(N3CCN(C4CCN(C)CC4)CC3)s2)CC1 [Compound 9]
22 | 5.83 | 5.09 | < 5.00 | 5.34 | C[C@H](c1ccc(F)cc1)n1cncc1CN1CCN(S(=O)(=O)c2cnc(N3CC(=O)N4C[C@H](O)C[C@H]4C3)s2)CC1 [Compound 16]
23 | 5.66 | 5.65 | 5.47 | 5.03 | C[C@H](c1ccc(F)cc1)n1cncc1CN1CCN(S(=O)(=O)c2cnc(NCC(F)CN)s2)CC1 (stereo partly drawn) [Compound 17]
24 | 5.56 | 5.39 | < 5.00 | 5.65 | C[C@H](c1ccc(F)cc1)n1cncc1CN1CCN(S(=O)(=O)c2cnc(N3CC[C@@H](N4CCOCC4)[C@H](F)C3)s2)CC1 [Compound 20]
